The data set in a line: MALDI-TOF screening of Ni^2+ dependent hydrolysis in a combinatorial peptide library. The settings on record: Ni^2+ 2 mM, pH 8.2, 10 mM Tris, score=24/tm. The format is physicochemical. The text has this: The sequence CH3CO-Gly-Ala-Ser/Thr-X-His-Z-Lys-Phe-Leu-NH2 was designed so that the fixed R1 and R2 sequences, CH3CO-Gly-Ala, and Lys-Phe-Leu-NH2, respectively, allowed optimal detection by MALDI-TOF mass spectrometry of substrates as well as expected products, Ser/Thr-X-His-Z-Lys-Phe-Leu-NH2 and assured separation between the clusters of signals for substrates and products in sublibraries (see below).
Residues in position X included all amino acids commonly present in proteins, except for Asp, Glu, and Cys. The former two contain carboxylates in their side chains, which may bind Ni^2+ in a way which would quench or slow down the hydrolysis reaction. The Cys residue may do the same, and also may engage in side reactions with Ni^2+ ions, including redox processes (for example see Bal and Kasprzak, Toxicol. Lett. 2002, 127, 55-62). Only the Cys residue was eliminated from position Z, for the same reasons.
The synthesis of the library was accomplished on a RINK amide resin (Novabiochem) on a 800 mg scale, according to a typical Fmoc protocol (Fields, Meth. Enzymol. Vol. 289). The resin-attached Leu-Phe-Lys peptide was synthesised first and coupled with the isokinetic mixture of 19 amino acids selected for position Z, and then with the H is residue. The resin carrying the library of pentapeptides was divided into Ser and Thr halves at this stage, and each of these halves into 17 portions, which were coupled with individual amino acids selected for position X. The coupling with Ser or Thr as appropriate, additions of Ala and Gly residues, acetylation of Gly, deprotection and cleavage from the resin were accomplished subsequently. Each of the resulting 34 samples of sublibraries randomized at position X was separated into two portions, one for the reaction at 37° C. and another for the reaction at 45° C. The hydrolysis reactions were accomplished in 10 mM Tris buffers at pH 8.2. The total concentrations of peptide mixtures and Ni^2+ ions were 1 mM and 2 mM, respectively. The pH for the reaction was chosen as selective for highly reactive sequences.
The detection of reaction products was accomplished with the use of a MALDI-TOF mass spectrometer (Micromass). The aliquots were removed from reaction mixtures and measured by MS at 2, 4, 6, and 8 hours of incubation. The progress of reaction was evaluated by visual detection in mass spectra of appearance of signals corresponding to expected products of hydrolysis, Ser/Thr-X-His-Z-Lys-Phe-Leu-NH2, at given measurement times, tm. […] Also the decrease of signals of substrates was controlled in these cases.
Residues X and Z were then sorted according to various molecular parameters, describing their physical properties (Carugo, In Silico Biol. 2003, 3, 0035). […] The Ser library provided a higher number of reactive peptides than the Thr library. Following the additivity of effects, the scores were also summed up in lines and columns of Table 1A-D, thereby creating final rankings for preferred substitutions in positions X and Z.

Setting [1] is: CH3CO-Gly-Ala-Thr-X-His-Z-Lys-Phe-Leu-NH2 library, 37° C.
The mark [2] stands for this setting: CH3CO-Gly-Ala-Thr-X-His-Z-Lys-Phe-Leu-NH2 library, 45° C.
Where [3] appears, read: CH3CO-Gly-Ala-Ser-X-His-Z-Lys-Phe-Leu-NH2 library, 37° C.
Where [4] appears, read: CH3CO-Gly-Ala-Ser-X-His-Z-Lys-Phe-Leu-NH2 library, 45° C.

The text below walks through data of patent US8969516B2, “Method of hydrolysis of peptide bond” (priority 2006, dated 2015).

For Ac-GATQHMKFL-NH2 [TQHM], the “hydrolysis score from MALDI-TOF screening” value (“hydrolysis score” for short) is, setting by setting: under setting [1], 0 (a score of 0 if no trace of the product of hydrolysis was seen after 8 hours of incubation); under setting [2], 0 (a score of 0 if no trace of the product of hydrolysis was seen after 8 hours of incubation).
On to Ac-GASKHFKFL-NH2 [SKHF], for which the “hydrolysis score” value under setting [3] is recorded as 4 (a score of 4 for detection at 6 hours) and the “hydrolysis score” value under setting [4] is reported as 4 (a score of 4 for detection at 6 hours).
Take Ac-GASWHVKFL-NH2 [SWHV]: the “hydrolysis score” value reads like this: under setting [3], 3 (a score of 3 for detection at 8 hours); under setting [4], 12 (a score of 12, if it was seen to be partially hydrolysed at 2 hours).
For Ac-GASNHFKFL-NH2 [SNHF], the “hydrolysis score” value under setting [3] is 3 (a score of 3 for detection at 8 hours) and the “hydrolysis score” value under setting [4] is 3 (a score of 3 for detection at 8 hours).
On to Ac-GASTHFKFL-NH2 [STHF], for which the “hydrolysis score” value was 0 (a score of 0 if no trace of the product of hydrolysis was seen after 8 hours of incubation) under setting [3] and 3 (a score of 3 for detection at 8 hours) under setting [4].
Ac-GASGHIKFL-NH2 [SGHI]: the “hydrolysis score” value runs as follows: under setting [3], 0 (a score of 0 if no trace of the product of hydrolysis was seen after 8 hours of incubation); under setting [4], 3 (a score of 3 for detection at 8 hours).
In the case of Ac-GASHHSKFL-NH2 [SHHS], the “hydrolysis score” value by setting is: under setting [3], 0 (a score of 0 if no trace of the product of hydrolysis was seen after 8 hours of incubation); under setting [4], 0 (a score of 0 if no trace of the product of hydrolysis was seen after 8 hours of incubation).
Regarding Ac-GATRHLKFL-NH2 [TRHL], the “hydrolysis score” value under setting [1] is on record as 6 (a score of 6 for detection at 4 hours) and the “hydrolysis score” value under setting [2] is 12 (a score of 12, if it was seen to be partially hydrolysed at 2 hours).
Regarding Ac-GASWHDKFL-NH2 [SWHD], the “hydrolysis score” value runs as follows: under setting [3], 0 (a score of 0 if no trace of the product of hydrolysis was seen after 8 hours of incubation); under setting [4], 0 (a score of 0 if no trace of the product of hydrolysis was seen after 8 hours of incubation).
Turning to Ac-GATGHVKFL-NH2 [TGHV], the “hydrolysis score” value runs as follows: under setting [1], 0 (a score of 0 if no trace of the product of hydrolysis was seen after 8 hours of incubation); under setting [2], 0 (a score of 0 if no trace of the product of hydrolysis was seen after 8 hours of incubation).
In the case of Ac-GATKHDKFL-NH2 [TKHD], the “hydrolysis score” value is listed as 0 (a score of 0 if no trace of the product of hydrolysis was seen after 8 hours of incubation) under setting [1] and 0 (a score of 0 if no trace of the product of hydrolysis was seen after 8 hours of incubation) under setting [2].
As to Ac-GATPHNKFL-NH2 [TPHN], the “hydrolysis score” value under setting [2] is 0 (a score of 0 if no trace of the product of hydrolysis was seen after 8 hours of incubation).
Ac-GATHHAKFL-NH2 [THHA]: the “hydrolysis score” value is, setting by setting: under setting [1], 0 (a score of 0 if no trace of the product of hydrolysis was seen after 8 hours of incubation); under setting [2], 4 (a score of 4 for detection at 6 hours).
With Ac-GASLHIKFL-NH2 [SLHI], the “hydrolysis score” value reads like this: under setting [3], 3 (a score of 3 for detection at 8 hours); under setting [4], 0 (a score of 0 if no trace of the product of hydrolysis was seen after 8 hours of incubation).
For Ac-GATGHYKFL-NH2 [TGHY], the “hydrolysis score” value under setting [1] was 0 (a score of 0 if no trace of the product of hydrolysis was seen after 8 hours of incubation) and the “hydrolysis score” value under setting [2] is given as 0 (a score of 0 if no trace of the product of hydrolysis was seen after 8 hours of incubation).
As for Ac-GASNHPKFL-NH2 [SNHP], the “hydrolysis score” value under setting [3] is recorded as 0 (a score of 0 if no trace of the product of hydrolysis was seen after 8 hours of incubation) and the “hydrolysis score” value under setting [4] is 0 (a score of 0 if no trace of the product of hydrolysis was seen after 8 hours of incubation).
As for Ac-GATFHDKFL-NH2 [TFHD], the “hydrolysis score” value is, setting by setting: under setting [1], 0 (a score of 0 if no trace of the product of hydrolysis was seen after 8 hours of incubation); under setting [2], 0 (a score of 0 if no trace of the product of hydrolysis was seen after 8 hours of incubation).
For Ac-GASIHSKFL-NH2 [SIHS], the “hydrolysis score” value reads like this: under setting [3], 0 (a score of 0 if no trace of the product of hydrolysis was seen after 8 hours of incubation); under setting [4], 0 (a score of 0 if no trace of the product of hydrolysis was seen after 8 hours of incubation).
As to Ac-GATSHFKFL-NH2 [TSHF], the “hydrolysis score” value by setting is: under setting [1], 0 (a score of 0 if no trace of the product of hydrolysis was seen after 8 hours of incubation); under setting [2], 0 (a score of 0 if no trace of the product of hydrolysis was seen after 8 hours of incubation).
Regarding Ac-GASYHQKFL-NH2 [SYHQ], the “hydrolysis score” value is on record as 0 (a score of 0 if no trace of the product of hydrolysis was seen after 8 hours of incubation) under setting [3] and 0 (a score of 0 if no trace of the product of hydrolysis was seen after 8 hours of incubation) under setting [4].
For the substance Ac-GASHHNKFL-NH2 [SHHN], the “hydrolysis score” value was 0 (a score of 0 if no trace of the product of hydrolysis was seen after 8 hours of incubation) under setting [3] and 0 (a score of 0 if no trace of the product of hydrolysis was seen after 8 hours of incubation) under setting [4].
Regarding Ac-GATYHVKFL-NH2 [TYHV], the “hydrolysis score” value runs as follows: under setting [1], 0 (a score of 0 if no trace of the product of hydrolysis was seen after 8 hours of incubation); under setting [2], 0 (a score of 0 if no trace of the product of hydrolysis was seen after 8 hours of incubation).
Consider Ac-GATAHFKFL-NH2 [TAHF], for which the “hydrolysis score” value under setting [1] was 0 (a score of 0 if no trace of the product of hydrolysis was seen after 8 hours of incubation) and the “hydrolysis score” value under setting [2] is recorded as 0 (a score of 0 if no trace of the product of hydrolysis was seen after 8 hours of incubation).
In the case of Ac-GASTHPKFL-NH2 [STHP], the “hydrolysis score” value runs as follows: under setting [3], 0 (a score of 0 if no trace of the product of hydrolysis was seen after 8 hours of incubation); under setting [4], 0 (a score of 0 if no trace of the product of hydrolysis was seen after 8 hours of incubation).
Ac-GATIHGKFL-NH2 [TIHG]: the “hydrolysis score” value is recorded as 0 (a score of 0 if no trace of the product of hydrolysis was seen after 8 hours of incubation) under setting [1] and 0 (a score of 0 if no trace of the product of hydrolysis was seen after 8 hours of incubation) under setting [2].
Consider Ac-GATFHAKFL-NH2 [TFHA], for which the “hydrolysis score” value is, setting by setting: under setting [1], 0 (a score of 0 if no trace of the product of hydrolysis was seen after 8 hours of incubation); under setting [2], 0 (a score of 0 if no trace of the product of hydrolysis was seen after 8 hours of incubation).
As for Ac-GASTHKKFL-NH2 [STHK], the “hydrolysis score” value runs as follows: under setting [3], 3 (a score of 3 for detection at 8 hours); under setting [4], 6 (a score of 6 for detection at 4 hours).
As for Ac-GATWHVKFL-NH2 [TWHV], the “hydrolysis score” value was 0 (a score of 0 if no trace of the product of hydrolysis was seen after 8 hours of incubation) under setting [1] and 0 (a score of 0 if no trace of the product of hydrolysis was seen after 8 hours of incubation) under setting [2].
